SMILES strings stand for the structures. A value given as a limit tells only on which side of the number the result lay.

For 7 molecules, IC50 results are on record in patent US10800775B2, “Pyrazolyl pyrrolo[2,3-b]pyrmidine-5-carboxylate analogs and methods of making the same” (ACLARIS THERAPEUTICS, INC., priority 2017, dated 2020).

One test deals with JAK1 (Homo sapiens (Human), UniProt P23458). The experiment in a line: JAK1 enzyme activity assay (Z-lyte, Thermo Fisher Selectscreen). The test is classed as biochemical. To be noted: 2 μM Tyr 06 peptide, read-out: JAK1 Inhibition IC50. The procedure:
The inhibitory potency of candidate compounds of JAK1 done at Thermo Fisher Scientific in their Selectscreen using a Z-lyte assay. The 2×JAK1/Tyr 06 mixture is prepared in 50 mM HEPES pH 6.5, 0.01% BRIJ-35, 10 mM MgCl2, 1 mM EGTA, 0.02% NaN3. The final 10 μL of the Kinase Reaction consists of 21.2-91.5 ng JAK1 and 2 μM Tyr 06 in 50 mM HEPES pH 7.0, 0.01% BRIJ-35, 10 mM MgCl2, 1 mM EGTA, 0.01% NaN3. After the 1 hour Kinase Reaction incubation, 5 μL of a 1:128 dilution of Development Reagent is added.
Background signal is defined in the absence of enzyme and uninhibited signal is defined in the presence of vehicle (2% DMSO) alone. Compounds were evaluated in an 11 point dose-response ranging from […] to 0.34 nM. IC50 values of compounds are determined using a 4 parameter logistical fit of emission ratio as a function of the concentration of compound.

For test [1], the system named is IL-2 stimulated STAT5 phosphorylation on Tyr694 (JAK1/3). The test can be described thus: JAK1/3 phospho-STAT5 cellular target modulation assay, IL-2 stimulated human PBMC. The test is classed as cell-based. To be noted: IL-2 25 ng/ml, read-out: IL2-STAT5 Inhibition IC50. From the text:
(§1) Target modulation was based upon the ability of a compound to inhibit JAK isoform specific phosphorylation of selected substrates. IL-2 stimulated STAT5 phosphorylation on Tyr694 was used to assess JAK1/3 compound selectivity. GM-CSF stimulated STAT5 phosphorylation on Tyr694 was used to assess JAK2 compound selectivity. IFNγ stimulated STAT1 phosphorylation on Tyr701 was used to assess JAK1/2 compound selectivity. For all three assays, human PBMC from frozen stocks were thawed, pelleted, resuspended in complete media (90% RPMI, 10% heat inactivated FBS, 10 mM HEPES, 47 μM 2-ME, pen/strep) and placed in wells of a 96 well V-bottom plate at 200,000 per well in 120 μl complete media. Compounds were added as 15 μl per well of 10× working stock solutions in complete media with 1% DMSO (or medium with 1% DMSO for controls) and placed on a plate shaker in a 37° C. incubator with 5% CO2 for 1 hour with gentle shaking (setting of 3). Stimulation used the addition of soluble cytokines. For the JAK1/3 phospho-STAT5 assay, 15 μl of 10× working stock recombinant human IL-2 was added to a final concentration of 25 ng/ml. For the JAK2 phospho-STAT5 assay, 15 μl of 10× working stock recombinant human GM-CSF was added to a final concentration of 5 ng/ml. For the JAK1/2 phospho-STAT1 assay, 15 μl of 10× working stock of recombinant human IFNγ was added to a final concentration of 10 ng/ml. Plates were then placed back on the plate shaker in the incubator for an additional 5, 5 and 10 minutes respectively upon which the plates were removed from the incubator, sealed with a plate sealer and the cells pelleted at 400×g for 5 minutes. After pelleting, the media was removed by aspiration and the cells were lysed in ELISA specific cell lysis buffer. The levels of phospho-STAT5 were determined using a Phospho (Tyr694)/Total STAT5a,b Whole Cell Lysate kit from Meso Scale Discovery. Levels of phospho-STAT1 were determined using a CST-PathScan Phospho-STAT1 (Tyr701) Sandwich ELISA kit.

The target in the next test is JAK3 (a.a. 781-1124) (Homo sapiens (Human), UniProt P52333). The test can be described thus: JAK3 enzyme activity assay (SRCtide phosphorylation, Caliper). The settings on record: 2.5 nM JAK3, 1 μM SRCtide, 1 uM ATP; read-out: JAK3 Inhibition IC50. The test is classed as biochemical. The procedure: The activity of JAK3 (a.a. 781-1124, ThermoFisher) was quantified by measuring the phosphorylation of SRCtide (FAM-GEEPLYWSFPAKKK-NH2). Kinase reactions were run in a 384-well Greiner plate with 2% final DMSO concentration under the buffer conditions of 20 mM HEPES, pH 7.5, 10 mM MgCl2, 0.01% BSA, and 0.0005% Tween-20. The kinase reaction components were 2.5 nM JAK3, 1 μM SRCtide peptide and 1 uM ATP. Examples were tested in dose-response starting at 2 μM (11 concentrations, 3-fold serial dilution, duplicate reactions). The reactions were incubated at room temperature for 40 minutes, then stopped by adding a 1:1 volume of 30 mM EDTA in 20 mM HEPES, pH 7.5 (15 mM EDTA final). After the reaction was stopped, the phosphorylated and unphosphorylated peptides were separated and quantified using a Caliper LC3000/EZ-Reader system and HTS Well Analyzer Software (Caliper, A PerkinElmer Company, Hopkinton, Mass.). GraFit (Erithacus Software Ltd., Horley, U.K.) was used to calculate inhibitor potency by fitting dose-response data to the 4-parameter logistical IC50 equation.
Chain of JAK3 (a.a. 781-1124) (P52333 781-1124): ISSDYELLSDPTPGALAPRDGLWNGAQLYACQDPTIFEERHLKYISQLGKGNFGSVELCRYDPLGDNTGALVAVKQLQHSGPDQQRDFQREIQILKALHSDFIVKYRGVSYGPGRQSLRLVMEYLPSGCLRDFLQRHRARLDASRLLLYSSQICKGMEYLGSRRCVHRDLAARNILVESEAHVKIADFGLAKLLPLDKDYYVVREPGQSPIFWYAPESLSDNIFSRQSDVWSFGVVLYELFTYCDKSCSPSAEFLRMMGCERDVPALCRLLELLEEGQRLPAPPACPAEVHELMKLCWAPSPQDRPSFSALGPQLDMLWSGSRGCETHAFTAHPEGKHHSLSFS

Test [2] relates to IFNγ stimulated STAT1 phosphorylation on Tyr701 (JAK1/2). The test can be described thus: JAK1/2 phospho-STAT1 cellular target modulation assay, IFNγ stimulated human PBMC. Type of test: cell-based. The settings on record: IFNγ 10 ng/ml, read-out: Infγ-STAT1 IC50.
From the text: as §1

Chain of JAK1 (P23458 whole entry): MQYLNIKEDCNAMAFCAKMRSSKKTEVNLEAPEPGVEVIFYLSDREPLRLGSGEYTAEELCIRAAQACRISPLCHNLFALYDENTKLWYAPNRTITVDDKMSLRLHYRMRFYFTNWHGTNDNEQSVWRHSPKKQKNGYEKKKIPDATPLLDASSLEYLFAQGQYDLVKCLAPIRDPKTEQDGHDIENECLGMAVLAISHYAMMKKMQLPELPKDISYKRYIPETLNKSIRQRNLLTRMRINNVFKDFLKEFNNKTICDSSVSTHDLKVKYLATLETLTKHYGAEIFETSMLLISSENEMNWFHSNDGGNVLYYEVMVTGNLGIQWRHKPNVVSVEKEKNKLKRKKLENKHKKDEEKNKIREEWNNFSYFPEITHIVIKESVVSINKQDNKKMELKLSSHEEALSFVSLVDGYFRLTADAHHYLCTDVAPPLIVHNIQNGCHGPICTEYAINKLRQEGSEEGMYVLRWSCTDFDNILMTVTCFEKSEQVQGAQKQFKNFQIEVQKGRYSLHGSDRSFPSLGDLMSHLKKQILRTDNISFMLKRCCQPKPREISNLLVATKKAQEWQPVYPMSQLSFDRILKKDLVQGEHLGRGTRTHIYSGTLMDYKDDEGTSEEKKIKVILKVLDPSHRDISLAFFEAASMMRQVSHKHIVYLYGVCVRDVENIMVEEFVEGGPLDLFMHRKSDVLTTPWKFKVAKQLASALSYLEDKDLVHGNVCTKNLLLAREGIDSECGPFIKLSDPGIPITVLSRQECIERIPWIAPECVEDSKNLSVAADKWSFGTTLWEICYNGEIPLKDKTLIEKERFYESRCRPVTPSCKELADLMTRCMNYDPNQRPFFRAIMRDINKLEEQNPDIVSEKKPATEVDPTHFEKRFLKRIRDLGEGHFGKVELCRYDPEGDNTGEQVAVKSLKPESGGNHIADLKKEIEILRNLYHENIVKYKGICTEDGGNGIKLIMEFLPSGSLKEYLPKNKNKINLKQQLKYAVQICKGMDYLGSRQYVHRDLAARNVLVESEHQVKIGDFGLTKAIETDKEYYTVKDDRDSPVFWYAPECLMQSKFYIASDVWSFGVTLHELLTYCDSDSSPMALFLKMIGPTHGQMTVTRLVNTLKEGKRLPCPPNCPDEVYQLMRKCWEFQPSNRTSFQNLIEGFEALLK

For orientation: IC50 means the concentration needed to halve the response being measured. On to `CC(C)OC(=O)c1cnc2[nH]ccc2c1-c1cnn([C@@H](CC#N)C2CCCC2)c1` (single isomer, unassigned; enantiomer 2) [Example 19, isopropyl 4-(1-(2-cyano-1-cyclopentylethyl)-1H-pyrazol-4-yl)-1H-pyrrolo[2,3-b]pyridine-5-carboxylate, enantiomer 2], for which the half-maximal inhibitory concentration (IC50) at JAK1 was 10 to 100 nM; in test [1] it was not above 100 nM; at JAK3 (a.a. 781-1124) it was 10 to 100 nM; in test [2] it was 100 to 1000 nM.

Take `CCOC(=O)c1cnc2[nH]ccc2c1-c1cnn(C2(CC#N)CN(S(=O)(=O)CC)C2)c1` [Example 9, ethyl 4-(1-(3-(cyanomethyl)-1-(ethylsulfonyl)azetidin-3-yl)-1H-pyrazol-4-yl)-1H-pyrrolo[2,3b]pyridine-5-carboxylate]: the IC50 is not above 10 nM on JAK1, not above 100 nM in test [1], 10 to 100 nM on JAK3 (a.a. 781-1124) and 100 to 1000 nM in test [2].

In the case of `CC(C)OC(=O)c1cnc2[nH]ccc2c1-c1cnn([C@H](CC#N)C2CCCC2)c1` (single isomer, unassigned; enantiomer 1) [Example 18, isopropyl 4-(1-(2-cyano-1-cyclopentylethyl)-1H-pyrazol-4-yl)-1H-pyrrolo[2,3-b]pyridine-5-carboxylate, enantiomer 1], the IC50 on JAK1 was not above 10 nM; in test [1], not above 100 nM; on JAK3 (a.a. 781-1124), 10 to 100 nM; in test [2], 100 to 1000 nM.

Take `CCOC(=O)c1cnc2[nH]ccc2c1-c1cnn([C@@H](CC#N)C2CCCC2)c1` (single isomer, unassigned; stereoisomer 2) [Example 17, ethyl 4-(1-(2-cyano-1-cyclopentylethyl)-1H-pyrazol-4-yl)-1H-pyrrolo[2,3-b]pyridine-5-carboxylate stereoisomer 2]: the IC50 at JAK1 was 10 to 100 nM; in test [1], 100 to 1000 nM; on JAK3 (a.a. 781-1124), 10 to 100 nM; in test [2] it was 100 to 1000 nM.

Take `CCOC(=O)c1cnc2[nH]ccc2c1-c1cnn([C@H](CC#N)C2CCCC2)c1` (single isomer, unassigned; stereoisomer 1) [Example 16, ethyl 4-(1-(2-cyano-1-cyclopentylethyl)-1H-pyrazol-4-yl)-1H-pyrrolo[2,3-b]pyridine-5-carboxylate stereoisomer 1]: the IC50 at JAK1 was not above 10 nM; in test [1], 100 to 1000 nM; at JAK3 (a.a. 781-1124), 10 to 100 nM; in test [2], 100 to 1000 nM.

For the molecule `CCCOC(=O)c1cnc2[nH]ccc2c1-c1cnn([C@H](CC#N)C2CCCC2)c1` [Example 20, propyl (R)-4-(1-(2-cyano-1-cyclopentylethyl)-1H-pyrazol-4-yl)-1H-pyrrolo[2,3-b]pyridine-5-carboxylate], the half-maximal inhibitory concentration (IC50) is not above 10 nM on JAK1, not above 100 nM in test [1], 10 to 100 nM on JAK3 (a.a. 781-1124) and 100 to 1000 nM in test [2].

`CCOC(=O)c1cnc2[nH]ccc2c1-c1cnn(C(CC#N)C2CCCC2)c1` (racemic) [Example 1, ethyl 4-(1-(2-cyano-1-cyclopentylethyl)-1H-pyrazol-4-yl)-1H-pyrrolo[2,3-b]pyridine-5-carboxylate]: the IC50 was not above 10 nM on JAK1, 100 to 1000 nM in test [1], 10 to 100 nM on JAK3 (a.a. 781-1124) and 100 to 1000 nM in test [2].
